Measured values from article PMC4654502, “Early Gelatinase Activity Is Not a Determinant of Long-Term Recovery after Traumatic Brain Injury in the Immature Mouse” (PLoS ONE, 2015).

How the values were obtained:
[1] = test system: gelatinase activity; experiment: In situ zymography (DQ-gelatin) of brain sections after TBI at p21; format: in vivo, mouse; details: 25 mg/kg s.c. at 2, 4, 24 and 48 h post-injury; brains 1 h after last injection
Procedure: (§1) The treatment regime was based upon several considerations. […] Thirdly, we limited treatment to a period of 48 h post-injury in order to minimize potential off-target effects on ongoing brain development processes at this time, given the known roles that these gelatinases play in postnatal synaptic maturation. For acute studies (gelatin zymography and histology) animals were euthanized at 4 hours and for in situ zymography, they were euthanized 1 hour after the last injection. For long-term studies (behavioral and cognitive assessments and histology) animals were euthanized at ~2 months post-injury. Euthanasia was by overdose with 2.5% Avertin i.p. followed by decapitation or cardiac transperfusion as described below.
One hour after the last injection, brains were collected and embedded in optimal cutting temperature medium (OCT, Tissue-Tek, CA). The tissue blocks were cryosectioned at 10μm thickness and subjected to in-situ zymography, as described by Oh et al.. Briefly, the sectioned tissues were stained with DQ-gelatin (Molecular Probes, Inc., OR, USA) to detect gelatinase activity, followed by incubation with DAPI solution to detect nuclei. […]

[2] = test system: controlled cortical impact TBI at p21; experiment: Open field test at adulthood after TBI at p21; format: in vivo, male C57Bl/6J mice; details: 25 mg/kg s.c. at 2, 4, 24, 48 h post-injury; tested ~2 months post-injury
Procedure: (§2) The controlled cortical impact model of TBI was used as previously described. TBI to the p21 mouse approximates a toddler-aged child, based upon the structural, biochemical and behavioral characteristics of this age. Pups were anaesthetized with 1.25% 2,2,2-tribromoethanol (Avertin; Sigma-Aldrich, St. Louis, MO) in isotonic saline (i.p. bolus at 0.02 mL/g body weight). After craniotomy, mice were subjected to a controlled cortical impact at 4.5 m/s velocity and 1.73 mm depth of penetration, for a sustained depression of 150 ms, using a 3.0 mm convex impactor tip. Mice were maintained on a water-circulating heating pad throughout surgery and recovery. Following impact, the scalp was closed with sutures and each animal administered 0.5 ml of isotonic saline subcutaneously (s.c.) to prevent post-operative dehydration. Sham-operated mice underwent identical surgical procedures, including craniotomy, without receiving the cortical impact. All mice were closely monitored for 1–2 hours post-surgery until return of the righting reflex and full mobilization. Mice were then returned to group-housing, and weighed post-surgery at days 1, 3, and weekly thereafter till the end of the study.
The treatment regime was based upon several considerations. […]
Exploratory behaviors were assessed over a 10 min session in an automated open field arena (40.6 cm x 40.6 cm; Kinder Scientific, Poway, CA). […]

[3] = test system: controlled cortical impact TBI at p21; experiment: Elevated plus maze at adulthood after TBI at p21; format: in vivo, male C57Bl/6J mice; details: 25 mg/kg s.c. at 2, 4, 24, 48 h post-injury; tested ~2 months post-injury
Procedure: as §2, with “Mice were then returned to group-housing, and weighed post-surgery at days 1, 3, and weekly thereafter till the end of the study.” left out
The elevated plus maze (Kinder Scientific, Poway, CA) assesses anxiety based upon the natural tendency of rodents to avoid the open arms in preference for enclosed areas. […] Times spent in the open versus closed arms was assessed as previously described.

[4] = test system: controlled cortical impact TBI at p21; experiment: Morris water maze at adulthood after TBI at p21; format: in vivo, male C57Bl/6J mice; details: 25 mg/kg s.c. at 2, 4, 24, 48 h post-injury
Procedure: as §2, §1
Mice were randomized for behavior testing and all behavior testing was performed by individuals blinded to injury and treatment. Behavioral and cognitive testing of brain injured mice and sham controls commenced at 2 months post-injury (~ 3 months of age; n = 15/group). An extensive battery of behavioral assessments was performed in the following order: open field, rotarod, elevated plus maze, three-chamber social task, resident-intruder, and Morris water maze (MWM). […]
The MWM was used to assess spatial learning and memory as previously described, using a 140 cm-diameter circular pool filled with opaque water (22°C). […] Movements were tracked with an overhead mounted video camera interfaced with Noldus EthoVision software (Noldus IT, Tacoma, WA), for quantification of the cumulative distance to and latency to locate the platform, as well as swim velocity (cm/s). […]

[5] = test system: controlled cortical impact TBI at p21; experiment: Three-chamber social approach task at adulthood after TBI at p21; format: in vivo, male C57Bl/6J mice; details: 25 mg/kg s.c. at 2, 4, 24, 48 h post-injury
Procedure: as §2, with “study. […]” for “study.”
The three-chamber paradigm allows for the evaluation of social affiliation and social recognition in mice. […] Data were expressed as time spent in each chamber (% of total time).

[6] = target: MMP-9; details: cited from earlier work

O=S(=O)(CC1CS1)c1ccc(Oc2ccc(O)cc2)cc1 (centres unmarked) [p-OH SB-3CT]
gelatinase activity post-injury (in situ zymography) compared to vehicle control [1]: attenuated gelatinase activity
injury-induced hyperactivity (total distance traveled, open field) [2]: did not ameliorate this hyperactivity
percentage time spent in the center of the open field (anxiety-like behavior) [2]: neither TBI nor p-OH SB-3CT treatment affected this measure
time spent in the open arms of the elevated plus maze [3]: not affected by either TBI or p-OH SB-3CT treatment
MWM probe trials, effect of injury on spatial memory retention ([4]; four probe trials): not rescued by acute inhibition of gelatinases with p-OH SB-3CT
MWM cumulative distance to the target, visible and hidden sessions ([4]; tested at adulthood): no effect of p-OH SB-3CT treatment
MWM latency to reach the platform, visible and hidden platform sessions ([4]; tested at adulthood): did not modify this injury-related behavior
MWM swim velocity during visible platform trials ([4]; tested at adulthood): not influenced
three-chamber task stage 2, preference for sociability ([5]; groups = injury or drug treatment): no overall differences between groups
three-chamber task stage 3, lack of preference for social novelty after TBI ([5]; tested at adulthood): not rescued by p-OH SB-3CT
Ki [6]: 160 ± 80 nM
